Assay results published in patent US20240238317A1, “METHODS FOR REDUCING INTRAOCULAR PRESSURE” (UNIVERSITY OF MISSISSIPPI, priority 2021, published 2024).
Several values for one entry are separate records, joined by “and”; a condition that tells them apart may be missing. Identical values can stand only once.

Assays:
[1] = tested on: IOP in test eye of DB rabbits; assay: Combination dose multiple day application study: IOP lowering after topical co-administration of two formulations (second 15 minutes after first)
[2] = tested on: IOP in test eye of DB rabbits; assay: Single treatment multiple day application study: IOP lowering after topical administration of one formulation (QD, 5 days); assay type: in vivo, pigmented (Dutch Belted; DB) rabbits; parameters: Test eye IOP: unit not given here; settings: for Drop in IOP: test eye
Description: The rabbits were split into three groups.
The IOP profile following multi-day (QD, 5 days) exposure to a single formulation, in pigmented DB rabbits, is presented in FIGS. 1-26.

[3] = tested on: IOP; settings: topical application; cited from earlier work
[4] = Average of days 1, 3, 5, 30 min
[5] = Average of days 1, 3, 5, 60 min
[6] = Average of days 1, 3, 5, 90 min
[7] = Average of days 1, 3, 5, 120 min
[8] = Average of days 1, 3, 5, 150 min
[9] = Average of days 1, 3, 5, 180 min
[10] = Average of days 1, 3, 5, 240 min
[11] = Average of days 1, 3, 5, 300 min
[12] = Average of days 1, 3, 5, 360 min
[13] = Average of days 1, 3, 5, 420 min
[14] = Average of days 1, 3, 5, 480 min
[15] = Average of days 1, 3, 5, 540 min
[16] = Average of days 1, 3, 5, 1440 min

SMILES: CC(C)OC(=O)CCC/C=C\C[C@@H]1[C@@H](CC[C@@H](O)CCc2ccccc2)[C@H](O)C[C@@H]1O [Latanoprost]
- comparison of IOP lowering of combinations with single treatments [1]: decreased the efficacy of both THC-VHS-NEC and Rhopressa® when combined
- Test eye IOP ([2]; Average of days 1, 3, 5, 0 min): 24.6
- Test eye IOP [2, 4]: 20.1
- Test eye IOP [2, 5]: 19.6
- Test eye IOP [2, 6]: 19.5
- Test eye IOP [2, 7]: 19.7
- Test eye IOP [2, 8]: 19.6
- Test eye IOP [2, 9]: 20.0
- Test eye IOP [2, 10]: 19.5
- Test eye IOP [2, 11]: 19.7
- Test eye IOP [2, 12]: 19.9
- Test eye IOP [2, 13]: 21.0
- Test eye IOP [2, 14]: 23.9
- Test eye IOP [2, 15]: 24.8
- Test eye IOP [2, 16]: 24.4
- Drop in IOP ([2]; Average of days 1, 3, 5, 0 min): 0.0%
- Drop in IOP [2, 4]: −18.3%
- Drop in IOP [2, 5]: −20.3%
- Drop in IOP [2, 6]: −20.5%
- Drop in IOP [2, 7]: −19.8%
- Drop in IOP [2, 8]: −20.5%
- Drop in IOP [2, 9]: −18.7%
- Drop in IOP [2, 10]: −20.6%
- Drop in IOP [2, 11]: −21.7%
- Drop in IOP [2, 12]: −19.1%
- Drop in IOP [2, 13]: −14.5%
- Drop in IOP [2, 14]: −2.9%
- Drop in IOP [2, 15]: 0.7%
- Drop in IOP [2, 16]: −2.2%
- Test eye IOP ([2]; Day 1, 0 min): 25.2
- Test eye IOP ([2]; Day 1, 30 min): 20.0
- Test eye IOP ([2]; Day 1, 60 min): 19.6
- Test eye IOP ([2]; Day 1, 90 min): 19.2
- Test eye IOP ([2]; Day 1, 120 min): 19.8
- Test eye IOP ([2]; Day 1, 150 min): 19.4
- Test eye IOP ([2]; Day 1, 180 min): 20.2
- Test eye IOP ([2]; Day 1, 240 min): 19.7
- Test eye IOP ([2]; Day 1, 300 min): 19.7
- Test eye IOP ([2]; Day 1, 360 min): 19.7
- Test eye IOP ([2]; Day 1, 420 min): 20.9
- Test eye IOP ([2]; Day 1, 480 min): 23.8
- Test eye IOP ([2]; Day 1, 540 min): 25.2
- Test eye IOP ([2]; Day 1, 1440 min): 24.4
- Drop in IOP ([2]; Day 1, 0 min): 0.0%
- Drop in IOP ([2]; Day 1, 30 min): −20.5%
- Drop in IOP ([2]; Day 1, 60 min): −21.9%
- Drop in IOP ([2]; Day 1, 90 min): −23.7%
- Drop in IOP ([2]; Day 1, 120 min): −21.3%
- Drop in IOP ([2]; Day 1, 150 min): −22.9%
- Drop in IOP ([2]; Day 1, 180 min): −19.7%
- Drop in IOP ([2]; Day 1, 240 min): −21.8%
- Drop in IOP ([2]; Day 1, 300 min): −21.7%
- Drop in IOP ([2]; Day 1, 360 min): −21.7%
- Drop in IOP ([2]; Day 1, 420 min): −16.8%
- Drop in IOP ([2]; Day 1, 480 min): −5.4%
- Drop in IOP ([2]; Day 1, 540 min): 0.3%
- Drop in IOP ([2]; Day 1, 1440 min): −3.0%
- Test eye IOP ([2]; Day 3, 0 min): 24.6
- Test eye IOP ([2]; Day 3, 30 min): 19.8
- Test eye IOP ([2]; Day 3, 60 min): 19.5
- Test eye IOP ([2]; Day 3, 90 min): 19.8
- Test eye IOP ([2]; Day 3, 120 min): 19.6
- Test eye IOP ([2]; Day 3, 150 min): 19.6
- Test eye IOP ([2]; Day 3, 180 min): 20.0
- Test eye IOP ([2]; Day 3, 240 min): 19.6
- Test eye IOP ([2]; Day 3, 360 min): 19.6
- Test eye IOP ([2]; Day 3, 420 min): 21.0
- Test eye IOP ([2]; Day 3, 480 min): 23.7
- Test eye IOP ([2]; Day 3, 540 min): 24.5
- Test eye IOP ([2]; Day 3, 1440 min): 24.2
- Drop in IOP ([2]; Day 3, 0 min): 0.0%
- Drop in IOP ([2]; Day 3, 30 min): −19.4%
- Drop in IOP ([2]; Day 3, 60 min): −20.7%
- Drop in IOP ([2]; Day 3, 90 min): −19.6%
- Drop in IOP ([2]; Day 3, 120 min): −20.3%
- Drop in IOP ([2]; Day 3, 150 min): −20.3%
- Drop in IOP ([2]; Day 3, 180 min): −18.7%
- Drop in IOP ([2]; Day 3, 240 min): −20.5%
- Drop in IOP ([2]; Day 3, 360 min): −20.3%
- Drop in IOP ([2]; Day 3, 420 min): −14.7%
- Drop in IOP ([2]; Day 3, 480 min): −3.6%
- Drop in IOP ([2]; Day 3, 540 min): −0.4%
- Drop in IOP ([2]; Day 3, 1440 min): −3.6%
- Test eye IOP ([2]; Day 5, 0 min): 24.1
- Test eye IOP ([2]; Day 5, 30 min): 20.4
- Test eye IOP ([2]; Day 5, 60 min): 19.7
- Test eye IOP ([2]; Day 5, 90 min): 19.7
- Test eye IOP ([2]; Day 5, 120 min): 19.8
- Test eye IOP ([2]; Day 5, 150 min): 19.7
- Test eye IOP ([2]; Day 5, 180 min): 19.8
- Test eye IOP ([2]; Day 5, 240 min): 19.3
- Test eye IOP ([2]; Day 5, 360 min): 20.3
- Test eye IOP ([2]; Day 5, 420 min): 21.2
- Test eye IOP ([2]; Day 5, 480 min): 24.1
- Test eye IOP ([2]; Day 5, 540 min): 24.6
- Test eye IOP ([2]; Day 5, 1440 min): 24.7
- Drop in IOP ([2]; Day 5, 0 min): 0.0%
- Drop in IOP ([2]; Day 5, 30 min): −15.2%
- Drop in IOP ([2]; Day 5, 60 min): −18.2%
- Drop in IOP ([2]; Day 5, 90 min): −18.2%
- Drop in IOP ([2]; Day 5, 120 min): −17.8%
- Drop in IOP ([2]; Day 5, 150 min): −18.2%
- Drop in IOP ([2]; Day 5, 180 min): −17.5%
- Drop in IOP ([2]; Day 5, 240 min): −19.6%
- Drop in IOP ([2]; Day 5, 360 min): −15.4%
- Drop in IOP ([2]; Day 5, 420 min): −12.0%
- Drop in IOP ([2]; Day 5, 480 min): 0.3%
- Drop in IOP ([2]; Day 5, 540 min): 2.1%
- Drop in IOP ([2]; Day 5, 1440 min): 0.0%
- IOP returned to baseline (time) ([2]; single formulation): ≤ 480 min
- average max drop in IOP ([2]; single formulation, QD, 5 days): about 21.3+2.1%
- Max IOP drop (%) ([2]; single formulation, Day 1): −23.7%
- Max IOP drop (mmHg) ([2]; single formulation, Day 1): 6.0 mmHg and 6 mmHg
- Time of max IOP drop (%) ([2]; single formulation, Day 1): 90 min
- Time of max IOP drop (mmHg) ([2]; single formulation, Day 1): 90 min
- Max IOP drop (%) ([2]; single formulation, Day 3): −20.7%
- Max IOP drop (mmHg) ([2]; single formulation, Day 3): 5.1 mmHg
- Time of max IOP drop (%) ([2]; single formulation, Day 3): 60 min
- Time of max IOP drop (mmHg) ([2]; single formulation, Day 3): 60 min
- Max IOP drop (%) ([2]; single formulation, Day 5): −19.6%
- Max IOP drop (mmHg) ([2]; single formulation, Day 5): 4.7 mmHg
- Time of max IOP drop (%) ([2]; single formulation, Day 5): 240 min
- Time of max IOP drop (mmHg) ([2]; single formulation, Day 5): 240 min
- time to max drop in IOP ([2]; single formulation, day 1): 60 min
- time to max drop in IOP ([2]; single formulation, day 3): 90 min
- time to max drop in IOP ([2]; single formulation, day 5): 240 min
- maintained average drop in IOP ([2]; single formulation, from 30 to 420 mins): 19.4 ± 1.9%

SMILES: CCCCCc1cc(O)c2c(c1)OC(C)(C)[C@@H]1CCC(C)=C[C@@H]21 [THC, Delta-9-tetrahydrocannabinol]
- effect on IOP [3]: no effect on IOP
